Measured values from PMC8958511, “Development of Sulfamoylated 4-(1-Phenyl-1H-1,2,3-triazol-4-yl)phenol Derivatives as Potent Steroid Sulfatase Inhibitors for Efficient Treatment of Breast Cancer” (Journal of Medicinal Chemistry, 2022).
Values joined by “and” are separate entries in the source; they are usually repeats but may differ in a detail not shown here. Equal entries are not always repeated. Where two headings read alike, the source gives them in different places.

Assays:
[1] = target: T1, STS activity in murine livers and tumors (Mus musculus, UniProt P50427); test: determination of STS activity in murine livers and tumors of treated mice; settings: for Residual STS activity [%] Liver: liver tissue of mice treated per os at 50 mg/kg b.w.; for Residual STS activity [%] Tumor: tumor tissue of mice treated per os at 50 mg/kg b.w.
T1 sequence (P50427 23-624): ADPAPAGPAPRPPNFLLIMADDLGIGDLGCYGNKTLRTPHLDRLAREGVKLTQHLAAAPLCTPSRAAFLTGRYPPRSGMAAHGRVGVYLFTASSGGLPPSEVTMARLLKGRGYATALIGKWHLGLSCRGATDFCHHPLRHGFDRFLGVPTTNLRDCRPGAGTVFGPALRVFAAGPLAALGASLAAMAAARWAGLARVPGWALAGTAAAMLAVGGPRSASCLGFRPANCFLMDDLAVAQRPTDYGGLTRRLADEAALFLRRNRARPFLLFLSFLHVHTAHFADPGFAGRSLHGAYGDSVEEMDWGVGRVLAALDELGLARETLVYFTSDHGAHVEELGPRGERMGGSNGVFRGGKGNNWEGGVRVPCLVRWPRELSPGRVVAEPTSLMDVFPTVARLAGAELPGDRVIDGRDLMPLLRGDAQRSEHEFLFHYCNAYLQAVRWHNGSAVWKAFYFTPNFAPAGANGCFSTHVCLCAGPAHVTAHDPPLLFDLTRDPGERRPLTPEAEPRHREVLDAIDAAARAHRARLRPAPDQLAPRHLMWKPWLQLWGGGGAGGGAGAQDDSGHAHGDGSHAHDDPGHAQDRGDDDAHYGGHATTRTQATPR
Protocol: Then, the samples were subjected to sonication in five cycles of 10 s each and centrifuged for 10 min at 14 000g to pellet the tissue debris. Total protein concentrations were determined in the obtained lysates using the Bradford method, and 100 μg of the total protein was used for each reaction as a source of STS activity. […] E1S (4 × 10^4 Bq, 3 nM) and 20 mM Tris-HCl, pH 7.4. The volume of the reaction mixtures was adjusted to 100 μL with water. After incubation, 60 μL of each reaction mixture was collected, and the product formed by STS hydrolysis was extracted with toluene (0.5 mL). STS activity was measured using a MicroBeta radioluminometer (PerkinElmer). Assays were carried out in triplicate.

[2] = target: T2, STS isolated from the human placenta (Homo sapiens, UniProt P08842); test: radioisotope enzymatic assay with STS isolated from human placenta and [3H]E1S; assay type: biochemical; settings: for remaining activity at 0.5 µM: read-out: residual STS activity [%]; for residual STS activity [%]: 0.5 μM inhibitor concentration, substrate [3H]E1S, 3 nM, triplicate
T2 construct: radioisotope enzymatic assay using STS isolated from the human placenta; from tissue; host or cells: human placenta
T2 sequence (P08842 22-583): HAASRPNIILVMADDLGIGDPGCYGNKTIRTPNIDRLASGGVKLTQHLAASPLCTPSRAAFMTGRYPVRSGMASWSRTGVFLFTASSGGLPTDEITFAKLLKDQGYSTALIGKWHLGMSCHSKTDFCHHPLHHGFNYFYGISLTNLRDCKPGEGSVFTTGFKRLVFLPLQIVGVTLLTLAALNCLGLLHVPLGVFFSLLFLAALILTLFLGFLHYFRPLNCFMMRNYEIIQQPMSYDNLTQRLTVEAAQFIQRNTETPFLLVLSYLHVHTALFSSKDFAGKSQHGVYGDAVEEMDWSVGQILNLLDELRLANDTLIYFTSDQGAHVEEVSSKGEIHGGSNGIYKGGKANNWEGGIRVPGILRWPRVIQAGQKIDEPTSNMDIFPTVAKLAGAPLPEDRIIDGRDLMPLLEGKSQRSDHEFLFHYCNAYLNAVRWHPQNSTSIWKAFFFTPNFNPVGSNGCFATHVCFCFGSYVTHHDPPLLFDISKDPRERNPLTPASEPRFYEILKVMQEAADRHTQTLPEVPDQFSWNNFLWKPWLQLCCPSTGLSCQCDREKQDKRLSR
Protocol: The inhibitory potency of the synthesized compounds was examined in two ways, including an enzymatic assay and the radioisotope cellular test. The enzymatic assay was performed using the STS enzyme isolated from human placenta and using radiolabeled [^3H]E1S as a substrate.
The total volume of the reaction mixture was 100 μL. […] After incubation, the reaction mixture (90 μL) was collected from each well, and the product formed by STS hydrolysis was extracted with toluene (0.5 mL). STS activity was measured using a MicroBeta radioluminometer (PerkinElmer). Enzymatic assays were carried out in triplicate.

[3] = tested on: 67NR mouse mammary tumor cells; test: antitumor activity in 67NR orthotopic mouse breast carcinoma model; assay type: in vivo, BALB/c mice; settings: for body weight of treated tumor-bearing mice (observation) / tumor growth inhibition (TGI) / mice responded to the treatment / mice with much larger tumor than the mean control volume / mice with tumor volume reduced by approx. 50% compared to the TV control: 50 mg/kg b.w. per os; for tumor growth inhibition (TGI): 5 days a week, 67NR tumor, N = 9, vs control group; for mice responded to the treatment / mice with much larger tumor than the mean control volume / mice with tumor volume reduced by approx. 50% compared to the TV control: nine mice/group
Protocol: The tumor volume (TV) and body weight were measured three times a week. Results for individual groups are reported in Figure S5, Supporting Information. Based on TV data, the tumor growth inhibition (TGI) was calculated for groups that received compounds and compared to that of the control group. […] The body weight of the treated animals was monitored during the study, and the body weight change (BWC) index was calculated (Figure 4). […] Body weight loss was observed between D2 and D11 and reached 4.5% at most.
The growth of tumors has been observed.

[4] = blood morphology, blood biochemistry and organ weights of mice with 67NR tumor; settings: for spleen weight: 50 mg/kg b.w. per os; for spleen weight / ALT / AST / creatinine / urea: mice with 67NR tumor; for HCT / HGB / MCH / MCHC / MCV / MPV / PCT / PDW / PLT / RBC / RDW: Table S2, mice with 67NR tumor, 50 mg/kg; for ALT / AST / creatinine / urea: Table S3, plasma, 50 mg/kg per os, N=9
Protocol: At the end of the study, the autopsy of the animals was performed: blood was collected for further analyses of the morphology (Table S2, Supporting Information) and biochemistry (Table S3 and Figure S6, Supporting Information) and for the determination of the plasma estradiol level using the ELISA method.
Mice were injected orthotopically (in the mammary gland fat pad) with 67NR mouse mammary tumor cells derived from in vitro culture (1.5 × 10^5 cells/0.05 mL Hanks fluid/mouse). The growth of tumors has been observed. […] Animals were observed during the next 17 days and euthanized. During observation, body weight and tumor growth were monitored three times a week. The volume of the tumors was calculated according to the following formula: TV = a^2·b/2 [mm^3], (where: a—width and b—length of the tumor). Blood, tumor tissue, and liver were harvested during autopsy for further analyses. Blood aliquots (about 500 μL) were collected in EDTA containing vials for morphology analysis (Mythic 18 analyzer, Orphee), and then, the plasma was collected (centrifuged at 2500g for 15 min at 4 °C within 1 h after collection) for biochemical parameter analysis (Cobas c111, Roche).

[5] = target: T3, STS in MCF-7 cells (Homo sapiens, UniProt P08842); test: radioisotope cellular assay with [3H]E1S in MCF-7 cells; assay type: cell-based; settings: for remaining activity at 0.001 µM / remaining activity at 0.01 µM / remaining activity at 0.1 µM: MCF7, 20 h; for remaining activity at 0.001 µM: read-out: residual STS activity [%] 1 nM; for remaining activity at 0.01 µM: read-out: residual STS activity [%] 10 nM; for remaining activity at 0.1 µM: read-out: residual STS activity [%] 100 nM
T3 construct: The radioisotope cellular assay was performed using the MCF-7 cell line; endogenous in cells; host or cells: MCF-7
T3 sequence (P08842 22-583): T2 sequence (P08842 22-583)
Protocol: All compounds were initially tested for their in cell inhibitory action at a 100 nM concentration.
The inhibitory potency of the synthesized compounds was examined in two ways, including an enzymatic assay and the radioisotope cellular test. […] The radioisotope cellular assay was performed using the MCF-7 cell line in the presence of radiolabeled [^3H]E1S.
The evaluation of the inhibitory effect of each compound with breast cancer cells was performed using a previously described method (27) with some modifications. MCF-7 cells were maintained in Dulbecco’s modified Eagle medium supplemented with 10% fetal bovine serum and cultured in the above medium until 80% confluence. […] After incubation, the medium (0.45 mL) was collected from each well, and the product formed by STS hydrolysis was extracted with toluene (4 mL). STS activity was measured using a MicroBeta radioluminometer (PerkinElmer). Assays with MCF-7 cells were carried out in triplicate.

[6] = assay type: in vivo; settings: Table S1, MTD study, 50 mg/kg
Protocol: The mice were thus weighed, and their general health was observed. […] At the end of the study, the mice were sacrificed by dislocation of the cervical vertebrae, and the internal organs were examined macroscopically.
The mice were weighed, and their general health was observed. […] At the end of the MTD study, the autopsy was performed, and the internal organs (liver, kidney, and spleen) were weighed and macroscopically assessed.

[7] = tested on: STS; design: method as in earlier work; settings: STS inhibitory effect, system not given; ref 14−16; cited from earlier work
[8] = MCF-7 cells, substrate [3H]E1S, 3 nM

| SMILES | Residual STS activity [%] Liver [1] | Residual STS activity [%] Tumor [1] | remaining activity at 0.5 µM [2] [%] | mice responded to the treatment [3] [mice] | mice with tumor volume reduced by approx. 50% compared to the TV control [3] [mice] | spleen weight [4] | HCT [4] | HGB [4] | MCH [4] | MCHC [4] | MCV [4] | PCT [4] | PDW [4] | PLT [4] | RBC [4] | RDW [4] | creatinine [4] | urea [4] | remaining activity at 0.001 µM [5] [%] | remaining activity at 0.01 µM [5] [%] | further results |
| --- | --- | --- | --- | --- | --- | --- | --- | --- | --- | --- | --- | --- | --- | --- | --- | --- | --- | --- | --- | --- | --- |
| NS(=O)(=O)Oc1ccc(-c2cn(-c3cccc(Cl)c3)nn2)cc1 [4a, 4-(1-(3-Chlorophenyl)-1H-1,2,3-triazol-4-yl)phenyl Sulfamate] | 12,1% | 5,8% | 19.5 ± 0.97 | 7 | 5 | Significantly smaller spleens weights | 35,9±3,2% | 13,5±1,1 g/dL | 17,7±0,5 pg | 37,6±0,7 g/dL | 47,1±1 fL | 0,250±0,03% | 24,9±3 fL | 503,3±59,8 x103/uL | 7,6±0,8 x106/uL | 18±0,5% | 5,75±1,52 umol/L | 7,92±0,66 mmol/L | 38.2 | 28.1 ± 1.12 | body weight of treated tumor-bearing mice (observation) [3]: A body weight increase was observed; tumor growth inhibition (TGI) [3]: 47%; mice with much larger tumor than the mean control volume [3]: 1 mice; MPV [4]: 4,9±0,1 fL; ALT [4]: 27,3±3,9 U/L; AST [4]: 91,7±15,4 U/L; remaining activity at 0.1 µM [5]: 2.4 ± 0.07%; IC50 [5, 8]: 1.9 ± 0.06 nM; GRAN [6]: 13,2±3,6%; HCT [6]: 41±0,2%; HGB [6]: 15,1±0,2 g/dL; LIMF [6]: 83,5±4,1%; MCH [6]: 17,3±0,3 pg; MCHC [6]: 36,9±0,5 g/dL; MCV [6]: 46,8±0,2 fL; MON [6]: 3,3±0,6%; PLT [6]: 518±49 10x3/uL; RBC [6]: 8,8±0,1 10x6/uL; RDW [6]: 17,9±0,6%; WBC [6]: 4,5±0,3 10x3/uL |
| NS(=O)(=O)Oc1ccc(-c2cn(-c3cc(Cl)cc(Cl)c3)nn2)cc1 [4b, 4-(1-(3,5-Dichlorophenyl)-1H-1,2,3-triazol-4-yl)phenyl Sulfamate] | 14,5% | 5,1% | 13.3 | 7 | 5 | Significantly smaller spleens weights | 36,6±2,7% | 13,7±0,9 g/dL | 17,6±0,5 pg | 37,6±0,6 g/dL | 46,8±0,9 fL | 0,248±0,03% | 27,1±3,2 fL | 512,2±72,3 x103/uL | 7,8±0,7 x106/uL | 18,2±0,5% | 4,53±1,48 umol/L | 6,94±0,69 mmol/L | 63.7 ± 2.55 | 17.8 ± 0.62 | residual STS activity [%] [2]: 13.32 ± 0.67%; side effects and toxicity ([3]; 50 mg/kg): no evidence of side effects and toxicity; body weight of treated tumor-bearing mice (observation) [3]: A body weight increase was observed; MPV [4]: 4,9±0,2 fL; ALT [4]: 27,1±3,8 U/L; AST [4]: 86,6±18,5 U/L; remaining activity at 0.1 µM [5]: 2 ± 0.1%; IC50 [5, 8]: 1.71 ± 0.05 nM; GRAN [6]: 11,0±1,7%; HCT [6]: 44,1±1,3%; HGB [6]: 16,4±0,6 g/dL; LIMF [6]: 85,7±1,7%; MCH [6]: 17,4±0,01 pg; MCHC [6]: 37,1±0,4 g/dL; MCV [6]: 46,9±0,5 fL; MON [6]: 3,3±0,5%; PLT [6]: 533±34 10x3/uL; RBC [6]: 9,4±0,4 10x6/uL; RDW [6]: 17,5±0,6%; WBC [6]: 5,1±1,6 10x3/uL |
| NS(=O)(=O)Oc1ccc(-c2cn(-c3cccc(F)c3)nn2)cc1 [5g] | 13,6% | 5,2% | 37.9 ± 1.9 | 8 | 5 | Significantly smaller spleens weights | 35±2,4% | 13,5±0,9 g/dL | 18,3±0,9 pg | 38,6±0,6 g/dL | 47,4±2,8 fL | 0,255±0,04% | 26,9±4,8 fL | 508,6±69 x103/uL | 7,4±0,7 x106/uL | 19,1±1,5% | 6,51±1,49 umol/L | 8,83±1,32 mmol/L | 57.3 ± 3.44 | 1 | tumor growth inhibition (TGI) [3]: 42%; MPV [4]: 5±0,1 fL; AST [4]: 102,2±23,1 U/L; remaining activity at 0.1 µM [5]: 1 ± 0.04%; IC50 [5, 8]: 1.69 ± 0.08 nM; GRAN [6]: 12,4±1,7%; HCT [6]: 41,1±0,5%; HGB [6]: 15,2±0,2 g/dL; LIMF [6]: 84,3±2,3%; MCH [6]: 17,2±0,2 pg; MCHC [6]: 36,7±0,2 g/dL; MCV [6]: 46,9±0,3 fL; MON [6]: 3,4±0,6%; PLT [6]: 522±33 10x3/uL; RBC [6]: 8,8±0,01 10x6/uL; RDW [6]: 17,4±0,3%; WBC [6]: 4,9±1,3 10x3/uL |
| NS(=O)(=O)Oc1ccc(-c2cn(-c3cc(F)cc(F)c3)nn2)cc1 [5l, 4-(1-(3,5-difluorophenyl)-1H-1,2,3-triazol-4-yl)phenyl sulfamate] | 10,1% | 1,3% | 17.3 | 8 | 3 | Significantly smaller spleens weights | 34,7±2,1% | 13,3±0,8 g/dL | 17,8±0,3 pg | 38,3±0,4 g/dL | 46,4±0,7 fL | 0,233±0,035% | 29,3±4,6 fL | 463,1±74 x103/uL | 7,5±0,5 x106/uL | 18,4±1% | 5,6±1,65 umol/L | 8,1±0,7 mmol/L | 13.6 | 1 | residual STS activity [%] [2]: 17.34 ± 0.87%; tumor growth inhibition (TGI) [3]: 39%; mice with much larger tumor than the mean control volume [3]: 1 mice; remaining activity at 0.1 µM [5]: 1%; IC50 [5, 8]: 0.21 ± 0.01 nM; GRAN [6]: 10,6±0,2%; HCT [6]: 42±1,9%; HGB [6]: 15,4±0,5 g/dL; LIMF [6]: 86,6±0,2%; MCH [6]: 17,3±0,1 pg; MCHC [6]: 36,6±0,4 g/dL; MCV [6]: 47,2±0,2 fL; MON [6]: 2,9±0,4%; PLT [6]: 596±64 10x3/uL; RBC [6]: 8,9±0,4 10x6/uL; RDW [6]: 17,3±0,2%; WBC [6]: 4,2±0,6 10x3/uL |
| NS(=O)(=O)Oc1ccc2c3c(c(=O)oc2c1)CCCCC3 [Irosustat, reference compound] | – | – | – | – | – | – | – | – | – | – | – | – | – | – | – | – | – | – | – | – | IC50 [7]: 8 nM; residual STS activity [%] 1 nM ([5]; MCF-7 cells, 1 nM inhibitor, substrate [3H]E1S, 3 nM, triplicate): 16.8% and 16.8 ± 0.5%; residual STS activity [%] 10 nM ([5]; MCF-7 cells, 10 nM inhibitor, substrate [3H]E1S, 3 nM, triplicate): 12.9% and 12.9 ± 0.77%; residual STS activity [%] 100 nM ([5]; MCF-7 cells, 100 nM inhibitor, substrate [3H]E1S, 3 nM, triplicate): 2.4% and 2.4 ± 0.07% |
